The subject of data set [1] is Puccinia recondita. Nature of the data set: Example X: Puccinia test (wheat)/protective, comparison. Type of data set: in vivo. Conditions: protective, application rate 500 ppm, evaluation 7-9 days after inoculation. How it is done: (§1) Solvent: 49 parts by weight of N,N-dimethylformamide Emulsifier: 1 part by weight of alkylaryl polyglycol ether To produce a suitable preparation of active compound, 1 part by weight of active compound is mixed with the stated amounts of solvent and emulsifier, and the concentrate is diluted with water to the desired concentration. To test for protective activity, young plants are sprayed with the preparation of active compound at the stated application rate. One day after this treatment, the plants are inoculated with an aqueous spore suspension of Puccinia recondita.

In data set [2] the test system is Pyricularia oryzae. Type of data set: in vivo. Conditions: rice, protective, 500 ppm, evaluation 7 days after inoculation.
Data set [3] in a line: log P by HPLC on reversed-phase columns (EEC directive 79/831 Annex V.A8). The class given is physicochemical. The following applies: pH 2.7. How it is done:
The log P values were measured according to EEC directive 79/831 Annex V.A8 by HPLC (High Performance Liquid Chromatography) on reversed-phase columns, using the methods below: […] Calibration was carried out using unbranched alkan-2-ones (having from 3 to 16 carbon atoms) with known log P values (the log P values were determined by the retention times using linear interpolation between two successive alkanones). The lambda maX values were determined in the maxima of the chromatographic signals using the UV spectra from 200 nm to 400 nm.

For the next data set, the system named is Sphaerotheca fuliginea. Nature of the data set: Example V: preventative in vivo test with Sphaerotheca fuliginea (powdery mildew on cucumber). Conditions: 500 ppm, evaluation 12 days after inoculation. How it is done: The active compounds tested are prepared by homogenization in a mixture of acetone/Tween/DMSO and then diluted with water to the desired active compound concentration. Cucumber plants (cultivar “Vert petit de Paris”), sown in a 50/50 peat/pozzolana soil substrate and cultivated at 24° C., are treated at the Z11 cotyledon stage by spraying with the active compound, prepared as above. As a control, plants are treated with the mixture of acetone/Tween/DMSO/water without the active compound. After 24 hours, the plants are inoculated by spraying the leaves with an aqueous suspension of Sphaerotheca fuliginea spores. The inoculated cucumber plants are incubated at about 20° C./25° C. and a relative atmospheric humidity of 60/70%.

Data set [4] concerns Puccinia recondita. Put plainly: Example T: preventative in vivo test with Puccinia recondita (brown rust on wheat). Conditions: 500 ppm, evaluation 10 days after inoculation. How it is done:
The active compounds tested are prepared by homogenization in a mixture of acetone/Tween/DMSO and then diluted with water to the desired active compound concentration. Wheat plants (cultivar “Scipion”), sown in a 50/50 peat/pozzolana soil substrate and cultivated at 22° C. (12 h)/20° C. (12 h), are treated at the 1-leaf stage (height 10 cm) by spraying with the active compound, prepared as above. As a control, plants are treated with the mixture of acetone/Tween/DMSO/water without the active compound. After 24 hours, the plants are inoculated by spraying the leaves with an aqueous suspension of Puccinia recondita spores.

In data set [5] the test system is Septoria tritici. Nature of the data set: Example U: preventative in vivo test with Septoria tritici (leaf blotch disease on wheat). Conditions: 500 ppm, evaluation 21 to 28 days after inoculation. How it is done: The active compounds tested are prepared by homogenization in a mixture of acetone/Tween/DMSO and then diluted with water to the desired active compound concentration. Wheat plants (cultivar “Scipion”), sown in a 50/50 peat/pozzolana soil substrate and cultivated at 22° C. (12 h)/20° C. (12 h), are treated at the 1-leaf stage (height 10 cm) by spraying with the active compound, prepared as above. As a control, plants are treated with the mixture of acetone/Tween/DMSO/water without the active compound. After 24 hours, the plants are inoculated by spraying the leaves with an aqueous suspension of cryogenically preserved Septoria tritici spores.

For data set [6], the system named is Pyricularia oryzae. Type of data set: in vivo. Conditions: rice, preventative, 500 ppm, evaluation 6 days after inoculation.
The next data set has as its system Alternaria brassicae. Nature of the data set: Example O: preventative in vivo test with Alternaria brassicae (leaf spot on radish). Conditions: 500 ppm, evaluation 5 days after inoculation. How it is done:
The active compounds tested are prepared by homogenization in a mixture of acetone/Tween/DMSO and then diluted with water to the desired active compound concentration. Radish plants (cultivar “Pernod Clair”), sown in a 50/50 peat/pozzolana soil substrate and cultivated at 17° C., are treated at the 2-leaf stage by spraying with the active compound, prepared as above. As a control, plants are treated with the mixture of acetone/Tween/DMSO/water without the active compound. After 24 hours, the plants are inoculated by spraying the leaves with an aqueous suspension of Alternaria brassicae spores.

Data set [7] has as its system Uromyces appendiculatus. Put plainly: Example E: Uromyces test (bean)/protective. The class given is in vivo. Conditions: protective, 10 ppm, evaluation 10 days after inoculation. How it is done: as §1, with “Solvents: 24.5” for “Solvent: 49”, “acetone • 24.5 parts by weight of dimethylacetamide” for “N,N-dimethylformamide”, “[…] The” for “One day after this treatment, the”, “then placed in a greenhouse at about 21° C. and a relative atmospheric humidity” for “inoculated with an aqueous spore suspension”, “about 90%.” for “Puccinia recondita.”

The subject of the next data set is Venturia inaequalis. Put plainly: Example D: Venturia test (apple)/protective. Type of data set: in vivo. The following applies: protective, 100 ppm, evaluation 10 days after inoculation. How it is done: as §1, with “24.5” for “49”, “acetone • 24.5 parts by weight of dimethylacetamide” for “N,N-dimethylformamide”, “[…] The” for “One day after this treatment, the”, “then placed in a greenhouse at about 21° C. and a relative atmospheric humidity” for “inoculated with an aqueous spore suspension”, “about 90%.” for “Puccinia recondita.”

A further data set deals with Phakopsora pachyrhizi. Nature of the data set: Example F: Phakopsora test (soya beans)/protective. Type of data set: in vivo. Conditions: protective, 100 ppm, evaluation 7 days after inoculation. How it is done:
(§2) Solvents: 24.5 parts by weight of acetone • 24.5 parts by weight of dimethylacetamide Emulsifier: 1 part by weight of alkylaryl polyglycol ether To produce a suitable preparation of active compound, 1 part by weight of active compound is mixed with the stated amounts of solvent and emulsifier, and the concentrate is diluted with water to the desired concentration. To test for protective activity, young plants are sprayed with the preparation of active compound at the stated application rate.

The subject of data set [8] is Uromyces appendiculatus. Put plainly: Example W: preventative in vivo test with Uromyces appendiculatus (bean rust). Conditions: 500 ppm, evaluation 10 days after inoculation. How it is done:
The active compounds tested are prepared by homogenization in a mixture of acetone/Tween/DMSO and then diluted with water to the desired active compound concentration. Bean plants (cultivar “Saxa”), sown in a 50/50 peat/pozzolana soil substrate and cultivated at 24° C., are treated at the 2-leaf stage (height 9 cm) by spraying with the active compound, prepared as above. As a control, plants are treated with the mixture of acetone/Tween/DMSO/water without the active compound. After 24 hours, the plants are inoculated by spraying the leaves with an aqueous suspension of Uromyces appendiculatus spores.

For another data set, the system named is Pyrenophora teres. Put plainly: Example R: preventative in vivo test with Pyrenophora teres (net blotch on barley). Conditions: 500 ppm, evaluation 12 days after inoculation. How it is done:
The active compounds tested are prepared by homogenization in a mixture of acetone/Tween/DMSO and then diluted with water to the desired active compound concentration. Barley plants (cultivar “Plaisant”), sown in a 50/50 peat/pozzolana soil substrate and cultivated at 22° C. (12 h)/20° C. (12 h), are treated at the 1-leaf stage (height 10 cm) by spraying with the active compound, prepared as above. As a control, plants are treated with the mixture of acetone/Tween/DMSO/water without the active compound. After 24 hours, the plants are inoculated by spraying the leaves with an aqueous suspension of Pyrenophora teres spores.

The subject of data set [9] is Uromyces appendiculatus. Put plainly: Example Y: Uromyces test (beans)/protective, comparison. The class given is in vivo. The following applies: protective, application rate 10 ppm, evaluation 10 days after inoculation. How it is done:
as §2, with “rate. […] The plants are then placed in a greenhouse at about 21° C. and a relative atmospheric humidity of about 90%.” for “rate.”

Data set [10] has as its system Septoria tritici. Put plainly: Example Z: Septoria tritici test (wheat)/protective, comparison. The following applies: protective, application rate 250 ppm, evaluation 21 days after inoculation. Type of data set: in vivo. How it is done: Solvent: 49 parts by weight of N,N-dimethylacetamide Emulsifier: 1 part by weight of alkylaryl polyglycol ether To produce a suitable preparation of active compound, 1 part by weight of active compound or active compound combination is mixed with the stated amounts of solvent and emulsifier, and the concentrate is diluted with water to the desired concentration. To test for protective activity, young plants are sprayed with the preparation of active compound or active compound combination at the stated application rate. After the spray coating has dried on, the plants are sprayed with a spore suspension of Septoria tritici.

Structures are written as SMILES. Marks after values point to notes of the source that are not given here.

In the data set with Puccinia recondita [1], `CC(C)(C)C(O)(CCc1ccc(Cl)cc1)Cn1ccnc1I` (stereo not shown) [Example 4] returned an Efficacy in % of 95%. In the data set on Pyricularia oryzae [2], this compound showed an Eff. % of 80%.
As for `Fc1ccc(C2(Cn3ccnc3I)OC2c2ccccc2Cl)cc1` (stereo not shown) [Example 8], the logP in data set [3] is 3.09^[a]. Besides, the Efficacy % in the data set on Sphaerotheca fuliginea is given as 100%; in the data set on Puccinia recondita [4], 97%; with Septoria tritici [5], 100%; with Pyricularia oryzae [6], 75%; in the data set with Alternaria brassicae, 88%; in the data set with Uromyces appendiculatus [8] it was 100%. In addition, the Efficacy % with Pyrenophora teres is on record as 79%. Moreover, the Eff. % with Uromyces appendiculatus [7] is 100%; in the data set on Venturia inaequalis, 100%; in the data set with Phakopsora pachyrhizi, 99%.
In turn, `OC(Cc1ccc(F)cc1)(Cn1ccnc1)C1(Cl)CC1` (stereo not shown) [drawing 19, reference compound] displayed an Efficacy in % in the data set on Uromyces appendiculatus [9] of 65%.
Take `OC(Cc1ccc(F)cc1)(Cn1ccnc1)C1(Cl)CC1` (stereo not shown) [drawing 21, reference compound]: the Efficacy in % in the data set on Septoria tritici [10] was found to be 43%.
`CC(C)(C)C(O)(CCc1ccc(Cl)cc1)Cn1ccnc1` (stereo not shown) [reference compound] registered an Efficacy in % with Puccinia recondita [1] of 70%.

Source of the values: patent US9095136B2, “2-IODO imidazole-derivatives” (BAYER INTELLECTUAL PROPERTY GMBH, priority 2011, dated 2015).
